In one experiment the target is T1, human LH receptor (Homo sapiens, UniProt P22888).
T1 construct: expressed in transfected cells; host or cells: Chinese Hamster Ovary (CHO) cells, stably transfected; cotransfected with CRE-luciferase reporter
Nature of the experiment: CHO-LH in vitro bioactivity (CRE-luciferase reporter). Type of experiment: cell-based. Particulars: CHO cells stably transfected with human LH receptor. Here is the method: (§1) It has been shown that compounds of the above mentioned formula I show agonistic LH and FSH activity. […] Typically the FSH activity ranges from an activity of about 0.1% of the LH agonist stimulation to about 10% of the LH agonist stimulation.
(§2) LH agonistic activity of compounds were tested in Chinese Hamster Ovary (CHO) cells stably transfected with the human LH receptor and cotransfected with a cAMP responsive element (CRE)/promotor directing the expression of a firefly luciferase reporter gene. Binding of ligand to the Gs-coupled LH receptor will result in an increase of cAMP, which in turn will induce an increased transactivation of the luciferase reporter construct. The luciferase signal was quantified using a luminescence counter. For test compounds, EC50 values (concentration of test compound causing half-maximal (50%) stimulation) were calculated. For that purpose the software program GraphPad PRISM, version 3.0 (GraphPad software Inc., San Diego) was used.
(In general: In a reporter assay the amount or activity of a reporter protein is the signal.)

The next experiment has as its target T2, human FSH receptor (Homo sapiens, UniProt P23945).
T2 construct: expressed in transfected cells; host or cells: CHO cells transfected with human FSH receptor and CRE-luciferase reporter
T2 sequence (P23945 18-695): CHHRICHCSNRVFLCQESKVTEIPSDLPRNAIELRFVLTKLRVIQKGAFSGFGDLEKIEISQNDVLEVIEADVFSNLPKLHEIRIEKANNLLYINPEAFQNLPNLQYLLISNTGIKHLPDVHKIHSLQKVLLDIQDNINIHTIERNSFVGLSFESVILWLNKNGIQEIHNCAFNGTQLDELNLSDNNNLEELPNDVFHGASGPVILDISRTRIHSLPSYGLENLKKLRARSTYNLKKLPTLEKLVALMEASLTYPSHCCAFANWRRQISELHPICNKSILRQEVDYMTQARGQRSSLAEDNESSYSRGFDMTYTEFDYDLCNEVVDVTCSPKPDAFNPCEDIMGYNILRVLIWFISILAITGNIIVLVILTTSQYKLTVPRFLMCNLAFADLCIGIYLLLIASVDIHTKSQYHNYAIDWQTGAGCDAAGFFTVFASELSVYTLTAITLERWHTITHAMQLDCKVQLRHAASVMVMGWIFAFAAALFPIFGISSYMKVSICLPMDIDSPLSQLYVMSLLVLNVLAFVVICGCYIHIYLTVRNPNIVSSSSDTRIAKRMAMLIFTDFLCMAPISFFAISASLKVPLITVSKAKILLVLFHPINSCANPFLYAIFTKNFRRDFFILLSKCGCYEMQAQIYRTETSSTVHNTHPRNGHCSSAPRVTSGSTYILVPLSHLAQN
Briefly: CHO-FSH in vitro bioactivity (CRE-luciferase reporter). Type of experiment: cell-based. The note with it: CHO cells transfected with human FSH receptor and luciferase reporter gene. Here is the method:
as §1, §2
In a similar way FSH agonistic activity of compounds were tested in CHO cells transfected with the luciferase reporter gene and the human FSH receptor.

The values that follow come from patent US7375109B2, “Glycine-substituted thieno[2,3-d]pyrimidines with combined LH and FSH agonistic activity” (N.V. Organon, priority 2001, dated 2008).

T1 sequence (P22888 27-699): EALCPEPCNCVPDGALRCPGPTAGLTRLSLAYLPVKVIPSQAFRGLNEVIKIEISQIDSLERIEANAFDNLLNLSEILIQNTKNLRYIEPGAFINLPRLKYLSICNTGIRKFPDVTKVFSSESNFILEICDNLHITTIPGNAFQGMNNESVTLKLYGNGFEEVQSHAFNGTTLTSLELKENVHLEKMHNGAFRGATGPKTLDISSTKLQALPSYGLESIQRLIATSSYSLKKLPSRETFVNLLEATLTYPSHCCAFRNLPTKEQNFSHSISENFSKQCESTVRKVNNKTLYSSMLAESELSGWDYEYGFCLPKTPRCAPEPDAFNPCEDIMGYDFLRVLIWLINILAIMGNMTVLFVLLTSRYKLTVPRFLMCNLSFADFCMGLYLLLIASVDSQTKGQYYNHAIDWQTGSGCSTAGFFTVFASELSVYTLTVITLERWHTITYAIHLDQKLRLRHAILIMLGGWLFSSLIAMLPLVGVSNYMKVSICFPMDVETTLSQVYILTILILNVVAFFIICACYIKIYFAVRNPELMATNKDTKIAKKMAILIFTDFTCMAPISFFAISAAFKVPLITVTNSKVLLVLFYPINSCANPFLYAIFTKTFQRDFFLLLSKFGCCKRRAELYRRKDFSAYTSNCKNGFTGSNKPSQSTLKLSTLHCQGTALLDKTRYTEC

Consider `CSc1nc(-c2cccc(NC(=O)CNC(C)(C)CO)c2)c2c(N)c(C(=O)NC(C)(C)C)sc2n1` [Example 2, tert-Butyl 5-amino-2-methylthio-4-(3-((N-(1-hydroxy-2-methyl-prop-2-yl) -glycinyl)-amino)-phenyl)-thieno[2,3-d]pyrimidine-6-carboxamide], for which the EC50 was determined as 5.42 nM on human LH receptor and 806 nM on human FSH receptor.
Taken in the same sequence, the figures for `COC(=O)CNCC(=O)Nc1cccc(-c2nc(SC)nc3sc(C(=O)NC(C)(C)C)c(N)c23)c1` [Example 3, tert-Butyl 5-amino-2-methylthio-4-(3-((N-(methoxycarbonylmethyl)-glycinyl)-amino)-phenyl)-thieno[2,3-d]pyrimidine-6-carboxamide] were 5.97 nM and 1440 nM.
In the case of `COC(=O)[C@H](NCC(=O)Nc1cccc(-c2nc(SC)nc3sc(C(=O)NC(C)(C)C)c(N)c23)c1)C(C)C` [Example 5, tert-Butyl 5-amino-2-methylthio-4-(3-((N-(R-1-methoxycarbonyl-2-methyl-prop-1-yl)-glycinyl)-amino)-phenyl)-thieno[2,3-d]pyrimidine-6-carboxamide], the half-maximal effective concentration (EC50) at human LH receptor stood at 9.63 nM; at human FSH receptor, 348 nM.
Taken in the same sequence, the figures for `COCCN(CCOC)CC(=O)Nc1cccc(-c2nc(SC)nc3sc(C(=O)NC(C)(C)C)c(N)c23)c1` [Example 6, tert-Butyl 5-amino-2-methylthio-4-(3-((N,N-bis-(2-methoxyethyl)-glycinyl)-amino)-phenyl)-thieno[2,3-d]pyrimidine-6-carboxamide] were 10 nM and 1180 nM.
For `CSc1nc(-c2cccc(NC(=O)CNCC(O)CO)c2)c2c(N)c(C(=O)NC(C)(C)C)sc2n1` (stereo not drawn) [Example 7], in that order: 12.2 nM and 1130 nM.
For `CSc1nc(-c2cccc(NC(=O)CNC(CO)CO)c2)c2c(N)c(C(=O)NC(C)(C)C)sc2n1` [Example 8], the EC50 is 26.4 nM at human LH receptor and 1000 nM on human FSH receptor.
As for `COC(=O)CNCC(=O)Nc1cccc(-c2nc(-c3ccccc3)nc3sc(C(=O)NC(C)(C)C)c(N)c23)c1` [Example 10], the EC50 on human LH receptor worked out at 10.1 nM; at human FSH receptor, 2480 nM.
Regarding `CN(CCO)CC(=O)Nc1cccc(-c2nc(-c3ccco3)nc3sc(C(=O)NC(C)(C)C)c(N)c23)c1` [Example 11, tert-Butyl 5-amino-2-(2-furyl)-4-(3-((N-methyl-N-(2-hydroxyethyl)-glycinyl)-amino)-phenyl)-thieno[2,3-d]pyrimidine-6-carboxamide], the EC50 was 4 nM at human LH receptor and 616 nM at human FSH receptor.
Regarding `CC(C)(C)NC(=O)c1sc2nc(-c3ccco3)nc(-c3cccc(NC(=O)CNC(C)(C)CO)c3)c2c1N` [Example 12], the EC50 on human LH receptor came to 11.8 nM; on human FSH receptor, 2970 nM.
Turning to `COC(=O)CNCC(=O)Nc1cccc(-c2nc(-c3ccco3)nc3sc(C(=O)NC(C)(C)C)c(N)c23)c1` [Example 13], the EC50 amounted to 12.1 nM on human LH receptor and 2550 nM on human FSH receptor.
`CN(CCO)CC(=O)Nc1cccc(-c2nc(-c3cccs3)nc3sc(C(=O)NC(C)(C)C)c(N)c23)c1` [Example 14, tert-Butyl 5-amino-2-(2-thienyl)-4-(3-((N-methyl-N-(2-hydroxyethyl)-glycinyl)-amino)-phenyl)-thieno[2,3-d]pyrimidine-6-carboxamide]: the results for the EC50 on human LH receptor and on human FSH receptor were 5.28 nM and 1440 nM, respectively.
Taken in the same sequence, the figures for `COC(=O)CNCC(=O)Nc1cccc(-c2nc(-c3cccs3)nc3sc(C(=O)NC(C)(C)C)c(N)c23)c1` [Example 15, tert-Butyl 5-amino-2-(2-thienyl)-4-(3-((N-(methoxycarbonylmethyl)-glycinyl)-amino)-phenyl)-thieno[2,3-d]pyrimidine-6-carboxamide] were 18.2 nM and 3210 nM.

Broadly, the EC50 is the concentration that produces a half-maximal response. Read a low EC50 as an effect from little substance.
